Assay results as given in ChEMBL document CHEMBL4507268 (2021).

Legend:
[1] = target: D(3) dopamine receptor (Homo sapiens) (UniProt P35462); conditions: Compound concentration 10.0 uM
[2] = target: Serine/threonine-protein kinase N2 (Homo sapiens) (UniProt Q16513); conditions: Compound concentration 1000.0 nM
[3] = target: GABA-A receptor; anion channel (Rattus norvegicus) (UniProt O09028+P15431+P18506+P18508+P19969+P20236+P23574+P23576+P28471+P28473+P30191+P62813+P63079+P63138+Q91ZM7+Q9ES14); conditions: Compound concentration 10.0 uM
[4] = target: T1, Protein kinase C epsilon type (Homo sapiens) (UniProt Q02156); conditions: Compound concentration 1000.0 nM
T1 sequence (whole entry): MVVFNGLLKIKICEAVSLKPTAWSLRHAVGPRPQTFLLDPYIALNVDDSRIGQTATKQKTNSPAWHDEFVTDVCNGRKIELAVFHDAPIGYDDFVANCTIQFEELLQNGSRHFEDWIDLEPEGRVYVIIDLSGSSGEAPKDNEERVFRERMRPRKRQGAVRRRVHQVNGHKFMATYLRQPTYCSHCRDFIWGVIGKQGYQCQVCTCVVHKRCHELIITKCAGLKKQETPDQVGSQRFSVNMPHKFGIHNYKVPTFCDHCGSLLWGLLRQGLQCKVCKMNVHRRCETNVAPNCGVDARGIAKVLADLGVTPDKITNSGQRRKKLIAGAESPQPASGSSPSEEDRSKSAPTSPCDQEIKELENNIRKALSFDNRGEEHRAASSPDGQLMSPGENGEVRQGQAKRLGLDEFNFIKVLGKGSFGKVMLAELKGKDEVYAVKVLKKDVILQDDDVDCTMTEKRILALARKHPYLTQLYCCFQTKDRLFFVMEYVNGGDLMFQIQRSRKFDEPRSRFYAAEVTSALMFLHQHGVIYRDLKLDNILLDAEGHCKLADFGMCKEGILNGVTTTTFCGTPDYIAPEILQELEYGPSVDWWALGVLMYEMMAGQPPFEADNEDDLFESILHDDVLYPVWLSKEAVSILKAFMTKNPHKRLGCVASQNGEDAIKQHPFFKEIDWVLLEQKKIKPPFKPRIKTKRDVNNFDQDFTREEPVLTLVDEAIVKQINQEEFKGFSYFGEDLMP

[5] = target: cAMP-dependent protein kinase catalytic subunit beta (Homo sapiens) (UniProt P22694); conditions: Compound concentration 1000.0 nM
[6] = target: T2, Protein kinase C iota type (Homo sapiens) (UniProt P41743); conditions: Compound concentration 1000.0 nM
T2 sequence (whole entry): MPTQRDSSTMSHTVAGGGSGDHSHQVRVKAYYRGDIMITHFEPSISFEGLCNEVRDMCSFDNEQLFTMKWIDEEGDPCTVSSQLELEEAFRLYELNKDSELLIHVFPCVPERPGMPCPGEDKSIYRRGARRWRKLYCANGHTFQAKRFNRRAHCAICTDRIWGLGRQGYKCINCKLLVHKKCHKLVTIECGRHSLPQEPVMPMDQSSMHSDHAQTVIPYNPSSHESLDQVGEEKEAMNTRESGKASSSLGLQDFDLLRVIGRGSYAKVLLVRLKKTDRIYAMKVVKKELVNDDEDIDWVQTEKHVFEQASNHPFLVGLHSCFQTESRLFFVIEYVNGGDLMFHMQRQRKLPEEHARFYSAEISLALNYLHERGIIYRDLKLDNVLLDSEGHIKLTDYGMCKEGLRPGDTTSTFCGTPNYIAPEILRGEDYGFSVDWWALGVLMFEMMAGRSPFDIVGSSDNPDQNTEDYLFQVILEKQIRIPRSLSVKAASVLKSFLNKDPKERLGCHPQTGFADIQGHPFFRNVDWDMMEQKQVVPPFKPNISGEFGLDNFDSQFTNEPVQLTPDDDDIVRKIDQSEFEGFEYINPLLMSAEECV

[7] = target: Homeodomain-interacting protein kinase 2 (Homo sapiens) (UniProt Q9H2X6); conditions: Compound concentration 1000.0 nM
[8] = target: Delta-type opioid receptor (Homo sapiens) (UniProt P41143); conditions: Compound concentration 10.0 uM
[9] = target: TGF-beta receptor type-2 (Homo sapiens) (UniProt P37173); conditions: Compound concentration 1000.0 nM
[10] = target: Serine/threonine-protein kinase 32A (Homo sapiens) (UniProt Q8WU08); conditions: Compound concentration 1000.0 nM
[11] = target: Ribosomal protein S6 kinase alpha-1 (Homo sapiens) (UniProt Q15418); conditions: Compound concentration 1000.0 nM
[12] = target: Serine/threonine-protein kinase MARK1 (Homo sapiens) (UniProt Q9P0L2); conditions: Compound concentration 1000.0 nM
[13] = target: Receptor tyrosine-protein kinase erbB-2 (Homo sapiens) (UniProt P04626); conditions: Compound concentration 1000.0 nM
[14] = target: Ephrin type-A receptor 4 (Homo sapiens) (UniProt P54764); conditions: Compound concentration 1000.0 nM
[15] = target: Mitogen-activated protein kinase 14 (Homo sapiens) (UniProt Q16539); conditions: Compound concentration 1000.0 nM
[16] = target: Cyclin-dependent kinase 2 (Homo sapiens) (UniProt P24941); conditions: Compound concentration 1000.0 nM
[17] = target: Calcium-dependent protein kinase 1 (Plasmodium falciparum) (UniProt P62344); conditions: Compound concentration 1000.0 nM
[18] = target: Leucine-rich repeat serine/threonine-protein kinase 2 (Homo sapiens) (UniProt Q5S007); conditions: Compound concentration 1000.0 nM
[19] = target: T3, Serine/threonine-protein kinase 3 (Homo sapiens) (UniProt Q13188); conditions: Compound concentration 1000.0 nM
T3 sequence (whole entry): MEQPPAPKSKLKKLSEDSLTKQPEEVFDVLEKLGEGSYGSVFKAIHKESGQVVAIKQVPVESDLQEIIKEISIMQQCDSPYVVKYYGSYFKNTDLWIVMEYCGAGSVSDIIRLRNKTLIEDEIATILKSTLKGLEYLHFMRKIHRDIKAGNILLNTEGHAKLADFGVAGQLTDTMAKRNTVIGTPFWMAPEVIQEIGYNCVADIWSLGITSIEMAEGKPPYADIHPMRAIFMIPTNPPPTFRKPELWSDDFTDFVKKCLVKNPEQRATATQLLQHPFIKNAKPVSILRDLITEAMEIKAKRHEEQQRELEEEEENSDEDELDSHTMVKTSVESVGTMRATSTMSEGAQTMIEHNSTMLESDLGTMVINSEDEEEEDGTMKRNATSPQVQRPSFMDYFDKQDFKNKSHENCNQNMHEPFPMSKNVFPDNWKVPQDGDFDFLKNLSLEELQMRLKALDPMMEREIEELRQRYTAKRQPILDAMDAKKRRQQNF

Chain of Receptor tyrosine-protein kinase erbB-2 (Homo sapiens) (P04626 whole entry): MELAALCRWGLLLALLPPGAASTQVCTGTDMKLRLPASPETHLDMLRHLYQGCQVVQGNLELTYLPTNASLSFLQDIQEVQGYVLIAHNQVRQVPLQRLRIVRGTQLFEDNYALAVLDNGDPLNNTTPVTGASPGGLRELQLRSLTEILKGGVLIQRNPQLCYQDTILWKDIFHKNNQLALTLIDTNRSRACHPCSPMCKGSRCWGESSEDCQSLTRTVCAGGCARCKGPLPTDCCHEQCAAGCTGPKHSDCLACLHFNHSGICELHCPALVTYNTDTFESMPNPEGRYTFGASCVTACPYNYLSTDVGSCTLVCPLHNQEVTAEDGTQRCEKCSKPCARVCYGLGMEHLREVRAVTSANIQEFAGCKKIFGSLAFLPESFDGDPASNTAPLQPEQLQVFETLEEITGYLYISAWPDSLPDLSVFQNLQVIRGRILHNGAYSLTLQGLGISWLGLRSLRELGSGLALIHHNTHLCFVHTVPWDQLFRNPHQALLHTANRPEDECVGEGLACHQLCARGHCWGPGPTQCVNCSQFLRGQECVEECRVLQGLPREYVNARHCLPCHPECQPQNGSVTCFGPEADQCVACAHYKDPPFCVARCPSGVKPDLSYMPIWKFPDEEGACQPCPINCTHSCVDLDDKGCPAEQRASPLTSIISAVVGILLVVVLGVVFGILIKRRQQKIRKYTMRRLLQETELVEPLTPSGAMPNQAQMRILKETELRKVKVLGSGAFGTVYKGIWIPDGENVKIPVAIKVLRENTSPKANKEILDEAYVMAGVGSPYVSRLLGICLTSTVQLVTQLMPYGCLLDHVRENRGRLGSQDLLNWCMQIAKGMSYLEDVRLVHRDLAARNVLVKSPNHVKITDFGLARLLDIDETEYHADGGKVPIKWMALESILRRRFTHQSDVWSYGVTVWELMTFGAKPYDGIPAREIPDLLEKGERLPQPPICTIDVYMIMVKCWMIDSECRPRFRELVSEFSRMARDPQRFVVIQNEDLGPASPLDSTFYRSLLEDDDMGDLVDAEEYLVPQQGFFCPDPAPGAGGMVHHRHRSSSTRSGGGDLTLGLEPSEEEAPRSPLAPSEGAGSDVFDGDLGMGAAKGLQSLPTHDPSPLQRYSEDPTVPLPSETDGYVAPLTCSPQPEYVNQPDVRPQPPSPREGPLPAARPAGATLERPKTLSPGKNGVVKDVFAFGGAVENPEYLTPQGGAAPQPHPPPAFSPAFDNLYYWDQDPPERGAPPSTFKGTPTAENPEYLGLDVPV
Chain of Homeodomain-interacting protein kinase 2 (Homo sapiens) (Q9H2X6 whole entry, looked up): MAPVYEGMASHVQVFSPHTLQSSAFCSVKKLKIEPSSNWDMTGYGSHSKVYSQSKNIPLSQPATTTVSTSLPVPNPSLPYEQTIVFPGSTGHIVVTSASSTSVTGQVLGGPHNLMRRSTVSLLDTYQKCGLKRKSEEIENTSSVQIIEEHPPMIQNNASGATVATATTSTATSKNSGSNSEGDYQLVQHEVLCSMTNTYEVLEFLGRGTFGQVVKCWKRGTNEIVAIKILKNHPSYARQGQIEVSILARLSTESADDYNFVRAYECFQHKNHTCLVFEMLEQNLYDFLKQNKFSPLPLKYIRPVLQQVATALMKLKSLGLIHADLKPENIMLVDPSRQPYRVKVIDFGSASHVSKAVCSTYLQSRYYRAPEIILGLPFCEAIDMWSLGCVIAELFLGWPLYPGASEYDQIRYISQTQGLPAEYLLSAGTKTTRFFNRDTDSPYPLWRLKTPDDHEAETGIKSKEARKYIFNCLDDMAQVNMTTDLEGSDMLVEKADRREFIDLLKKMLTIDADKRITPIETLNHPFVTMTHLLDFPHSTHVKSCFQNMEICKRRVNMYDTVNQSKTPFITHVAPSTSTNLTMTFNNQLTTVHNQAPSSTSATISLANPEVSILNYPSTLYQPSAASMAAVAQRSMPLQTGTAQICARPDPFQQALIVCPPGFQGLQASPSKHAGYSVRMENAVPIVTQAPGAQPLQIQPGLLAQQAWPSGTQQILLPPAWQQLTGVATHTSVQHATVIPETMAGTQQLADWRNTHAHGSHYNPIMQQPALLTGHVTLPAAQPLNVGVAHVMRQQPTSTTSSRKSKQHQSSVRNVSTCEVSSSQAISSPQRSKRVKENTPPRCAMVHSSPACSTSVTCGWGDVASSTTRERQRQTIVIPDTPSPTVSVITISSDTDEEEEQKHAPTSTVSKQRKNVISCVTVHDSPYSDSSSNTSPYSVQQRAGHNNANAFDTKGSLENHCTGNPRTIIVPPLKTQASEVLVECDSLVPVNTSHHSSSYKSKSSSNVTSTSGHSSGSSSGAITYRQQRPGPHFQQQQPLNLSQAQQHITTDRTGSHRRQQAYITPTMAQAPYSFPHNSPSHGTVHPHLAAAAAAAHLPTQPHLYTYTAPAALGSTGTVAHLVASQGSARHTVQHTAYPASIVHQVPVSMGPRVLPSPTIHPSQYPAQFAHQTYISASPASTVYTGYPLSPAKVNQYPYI
Chain of Serine/threonine-protein kinase MARK1 (Homo sapiens) (Q9P0L2 whole entry, looked up): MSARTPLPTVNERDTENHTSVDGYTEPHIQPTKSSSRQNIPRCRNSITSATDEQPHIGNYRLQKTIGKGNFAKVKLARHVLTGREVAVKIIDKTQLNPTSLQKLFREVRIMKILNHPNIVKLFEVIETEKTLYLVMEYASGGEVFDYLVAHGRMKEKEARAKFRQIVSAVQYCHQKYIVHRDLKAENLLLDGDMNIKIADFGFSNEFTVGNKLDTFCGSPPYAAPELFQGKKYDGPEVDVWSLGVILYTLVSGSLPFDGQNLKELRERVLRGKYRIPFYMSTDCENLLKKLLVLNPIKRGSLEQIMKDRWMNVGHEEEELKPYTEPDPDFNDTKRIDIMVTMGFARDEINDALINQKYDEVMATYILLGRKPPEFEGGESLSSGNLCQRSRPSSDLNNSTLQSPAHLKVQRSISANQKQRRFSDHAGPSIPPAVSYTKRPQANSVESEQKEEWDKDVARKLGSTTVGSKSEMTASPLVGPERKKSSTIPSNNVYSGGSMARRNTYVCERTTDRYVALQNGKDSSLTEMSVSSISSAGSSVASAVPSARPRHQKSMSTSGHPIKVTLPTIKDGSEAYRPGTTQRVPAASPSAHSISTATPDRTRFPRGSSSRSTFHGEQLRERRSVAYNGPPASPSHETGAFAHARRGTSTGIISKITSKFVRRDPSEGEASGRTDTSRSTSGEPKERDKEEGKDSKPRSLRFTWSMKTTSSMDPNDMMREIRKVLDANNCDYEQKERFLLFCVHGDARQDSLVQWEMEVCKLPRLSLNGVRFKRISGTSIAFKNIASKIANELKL
Chain of Serine/threonine-protein kinase N2 (Homo sapiens) (Q16513 whole entry, looked up): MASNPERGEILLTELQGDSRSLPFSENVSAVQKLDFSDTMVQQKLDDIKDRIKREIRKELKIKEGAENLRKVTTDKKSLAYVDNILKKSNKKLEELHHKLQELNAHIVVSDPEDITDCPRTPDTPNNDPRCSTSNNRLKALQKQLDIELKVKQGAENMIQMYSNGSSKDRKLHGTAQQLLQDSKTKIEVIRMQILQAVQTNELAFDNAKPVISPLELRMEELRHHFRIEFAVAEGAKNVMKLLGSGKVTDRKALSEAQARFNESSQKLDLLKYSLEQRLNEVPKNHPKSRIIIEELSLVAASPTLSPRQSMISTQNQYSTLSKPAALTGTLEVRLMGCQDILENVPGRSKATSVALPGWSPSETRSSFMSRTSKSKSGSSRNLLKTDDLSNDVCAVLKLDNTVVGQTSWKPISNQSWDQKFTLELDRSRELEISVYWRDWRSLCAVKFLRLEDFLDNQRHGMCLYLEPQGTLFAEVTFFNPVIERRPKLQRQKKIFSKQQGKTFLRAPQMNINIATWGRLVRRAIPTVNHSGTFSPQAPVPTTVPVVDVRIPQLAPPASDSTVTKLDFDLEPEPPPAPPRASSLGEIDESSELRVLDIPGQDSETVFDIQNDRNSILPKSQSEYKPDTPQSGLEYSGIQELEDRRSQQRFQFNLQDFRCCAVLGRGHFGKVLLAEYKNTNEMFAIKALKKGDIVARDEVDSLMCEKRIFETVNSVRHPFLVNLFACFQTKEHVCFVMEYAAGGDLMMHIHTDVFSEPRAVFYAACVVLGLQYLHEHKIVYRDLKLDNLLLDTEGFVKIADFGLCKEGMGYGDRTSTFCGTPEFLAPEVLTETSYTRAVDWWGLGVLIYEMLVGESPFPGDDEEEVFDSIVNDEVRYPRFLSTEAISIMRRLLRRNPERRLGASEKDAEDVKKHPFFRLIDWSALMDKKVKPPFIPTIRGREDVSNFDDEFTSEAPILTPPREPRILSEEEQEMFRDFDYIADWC
Chain of Delta-type opioid receptor (Homo sapiens) (P41143 whole entry): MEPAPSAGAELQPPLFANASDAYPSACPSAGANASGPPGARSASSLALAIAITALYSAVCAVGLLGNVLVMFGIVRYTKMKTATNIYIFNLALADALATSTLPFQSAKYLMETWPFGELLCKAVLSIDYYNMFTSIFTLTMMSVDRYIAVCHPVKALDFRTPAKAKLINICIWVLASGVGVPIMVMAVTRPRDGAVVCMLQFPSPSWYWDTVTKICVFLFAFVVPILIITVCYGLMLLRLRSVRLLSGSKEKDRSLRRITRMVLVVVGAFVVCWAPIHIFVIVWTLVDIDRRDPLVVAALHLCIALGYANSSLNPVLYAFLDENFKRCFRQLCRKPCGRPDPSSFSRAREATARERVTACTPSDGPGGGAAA
Chain of Mitogen-activated protein kinase 14 (Homo sapiens) (Q16539 whole entry): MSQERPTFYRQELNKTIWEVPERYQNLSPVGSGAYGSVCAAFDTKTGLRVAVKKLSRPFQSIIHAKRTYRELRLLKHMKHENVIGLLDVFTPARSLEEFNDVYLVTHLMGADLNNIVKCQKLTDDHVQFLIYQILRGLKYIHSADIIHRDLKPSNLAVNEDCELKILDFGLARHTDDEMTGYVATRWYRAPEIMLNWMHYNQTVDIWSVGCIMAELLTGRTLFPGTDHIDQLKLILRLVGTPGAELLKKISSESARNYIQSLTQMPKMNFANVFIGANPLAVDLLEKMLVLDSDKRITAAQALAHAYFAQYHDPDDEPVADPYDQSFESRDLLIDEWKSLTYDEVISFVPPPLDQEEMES

Cc1nc(C2CCN(C(=O)c3ccc(OC(F)(F)F)cc3N)CC2)c2ncc(N3CCN(C)CC3)cc2n1 [BAY-693]
inactive: inhibition [1] -8.88% | residual activity [2] 100% | inhibition [3] -1.64% | residual activity [4] 100% | residual activity [5] 100% | residual activity [6] 81% | residual activity [7] 93% | inhibition [8] 4.34% | residual activity [9] 93% | residual activity [10] 86% | residual activity [11] 93% | residual activity [12] 100% | residual activity [13] 100% | residual activity [14] 100% | residual activity [15] 100% | residual activity [16] 87% | residual activity [17] 100% | residual activity [18] 89% | residual activity [19] 79%

CN1CCN(c2cnc3c(C4CCN(C(=O)c5ccc(OC(F)(F)F)cc5N)CC4)ncnc3c2)CC1 [BAY-885]
inactive: inhibition [1] 7.59% | residual activity [2] 100% | inhibition [3] 0.38% | residual activity [4] 100% | residual activity [5] 91% | residual activity [6] 77% | residual activity [7] 100% | inhibition [8] 0.94% | residual activity [9] 88% | residual activity [10] 94% | residual activity [11] 100% | residual activity [12] 100% | residual activity [13] 100% | residual activity [14] 100% | residual activity [15] 99% | residual activity [16] 100% | residual activity [17] 100% | residual activity [18] 100% | residual activity [19] 82%
